What was measured:
ATP production = test: ATP level in liver of treated mice; assay type: in vivo, mouse
Source text: Measurement of ATP level in liver. For measuring ATP, cellular ATP in livers was extracted using an ATP extraction kit of an ATP assay kit (Sigma-Aldrich, MAKI 90). The ATP level was quantitatively measured by the absorbance at 570 nm (A570).

[1] = test system: reactive oxygen species (ROS); test: Serum ROS generation evaluation; assay type: in vivo, mouse; settings: blood plasma, after 14 months of treatment
3T3-L1 pre-adipocytes = test: In vitro adipocyte differentiation (Oil Red O, protein blotting); assay type: cell-based
[2] = Stability of compound in drinking water; assay type: physicochemical; settings: drinking water pH=7-7.4, room temperature, 20-30 days
Source text: Previously, the inventors developed series of derivatives of the tetrazole, thiazole, and 1,2,3-triazole families that were thought to be reversible inhibitors of the cytochrome c oxidase (CcO) model and characterized as possible moderate inhibitors of mitochondrial respiration (Barile et al. (2012), Proceedings of the National Academy of Sciences of the United States of America, 109:7, pp. 2539-2543). In this research, a triphenyl phosphonium thiazole derivative (referred to herein as HG1a-1) was randomly selected. Overall, no mice died due to oral administration of compound during 18-20 months. […]
(§1) The C57BL/6 mice were maintained on a standard purified mouse diet (PicoLab 5053 Rodent Diet 20; Lab Diets) until they reached 2 months of age when the treatments started. […] Body weights were measured weekly at the same time each week. Food and water intake were measured once every month for 3-6 consecutive days at the same time each month. Water consumption was measured for 2 weeks prior to the start of administration. Compound was generated and modified for better permeability in to mitochondria, evaluated by HPLC, was 96%-97%. […] Aliquots were collected from each batch and measured by HPLC to confirm stability of the compound. […] Rectal body temperature was measured monthly, as described previously. Whole blood samples, and histopathology were analyzed after 14 months of treatment. […]

p16, p21 transcripts = test: qPCR of DNA damage and WAT senescence markers; assay type: in vivo, mouse; settings: WAT, after 14 months treatment
Method: Gene expression & RT qPCR Analyses. Total RNA was isolated using a commercially available kit (OMEGA bio-tek, R6812-02) according to the manufacturer's instructions. cDNA was generated using the PrimeScript RT reagent kit (TAKARA, RR047A). Gene expression were determined by qPCR as described in the product manual. The analysis was evaluated by Bio-Rad Real-Time System (CFX Connect™).
RNAs from 10 mice (5 treated and 5 Ctrl.) VF fat or livers were isolated by using omega Bio-Tek reagents, and cDNA was transcribed by (TAKARA). qPCR was then performed by using iQ SYBR Green mastermix bioscience on a CFX96 Real-Time System/C1000 Thermal Cycler (Bio-Rad).

mature 3T3-L1 cells = test: 2-NBDG glucose uptake in matured adipocytes; assay type: cell-based; settings: highest concentration 50 μg/mL, vs insulin (control) and Rosiglitazone
Method: Second, adipocytes are the main site of insulin action and, thereby, play an important role in glucose metabolism as well as in the regulation of body glucose homeostasis. Therefore, the glucose uptake tests were evaluated on matured adipocytes to stimulate 2-NBDG (glucose) in the absence and presence of insulin and Rosiglitazone (insulin-sensitizer) and the higher insulin sensitivity was verified after treatment by the inhibitor.

[3] = Body weight variations on high fat diet (HFD, 60% fat); assay type: in vivo, C57BL/6 mice; settings: for body weight gain on HFD: after 8 weeks HFD; for BW contrast of treated vs control: end of 8-week HFD
Method: (§2) Animal experimentation. Male C57BL/6 mice (Shanghai SLAC Laboratory animal Co. Ltd) were group-housed in a barrier facility with 12-hr light/12-hr dark cycles. All mice received a regular chow diet ad libitum (PicoLab 5053 Rodent Diet 20; Lab Diets) except for HFD (40-60%) and CR models. The compound was then administered in drinking water ad libitum at either 90-100 or 100-120 mg/kg/day, based on the previously measured water consumption.
The C57BL/6 mice were maintained on a standard purified mouse diet (PicoLab 5053 Rodent Diet 20; Lab Diets) until they reached 2 months of age when the treatments started. The CR animals were subjected to a lifelong restriction on PicoLab 5053 Rodent Diet 20; Lab Diets, starting at 12 weeks of age, with a daily food allotment of 60% of that eaten by the ad lib animals. Besides CR animals, the C57BL/6 groups in this study were fed the standard high fat diet (HFD; 60 or 40% fat). Body weights were measured weekly at the same time each week. Food and water intake were measured once every month for 3-6 consecutive days at the same time each month. Water consumption was measured for 2 weeks prior to the start of administration. Compound was generated and modified for better permeability in to mitochondria, evaluated by HPLC, was 96%-97%. The administration began at 8 weeks of age and continued for 16 months, until they became 18-month-old. The drug solution was prepared weekly in small batches by dissolving the compound into autoclaved water at the respective doses and filtering sterilely. Aliquots were collected from each batch and measured by HPLC to confirm stability of the compound. Water bottles and cages were changed twice weekly. Fed and fasted blood samples were collected monthly at the same time each month from tail and used for glucose, insulin, blood cell counts, lipid analysis using assay kits (Robio, China) and HbA1C assay kit (Crystal chem, USA) following the manufacturer protocol. IPGTTs and ITTs were conducted throughout morning and early afternoon after fasting for 16-18 hrs. and 4 hrs., respectively, once before start of treatment administration began and every 3 months thereafter. Rectal body temperature was measured monthly, as described previously. Whole blood samples, and histopathology were analyzed after 14 months of treatment. Tissue samples were collected after 10-14 months from mice, sacrificed and used for WB and qPCR microarray, and other analyses. All animal studies were approved by the Shanghai Jiao Tong University Animal Studies Committee and were in accordance with NIH guidelines. (Number of mice; SD=30, HFD=10, CR=20).

[4] = Long-term oral administration in drinking water, tolerability; assay type: in vivo, C57BL/6 mice
Method: as §2, §1

[5] = Single IP injection, body temperature and clinical pathology; assay type: in vivo, C57BL/6 mice; settings: Day 4
Method: Body temperature integration in mouse. Three groups of male C57BL/6 mice received a single injection of the inhibitor at dose-levels of 0 (vehicle=N/S), average μM and max μM and were then kept for an 80 minute observation period until the BT was stabilized. Treatment was performed as a slow injection, IP, under a dosage volume of 0.5 mL/kg.
Rectal temperature was measured using a conventional thermometer in all groups at 0, 10, 15, 20, 30, 40, 50, 60, 70 and 80 minutes and repeated three times in 3 days.

## Cc1ncsc1CCOC(=O)C[P+](c1ccccc1)(c1ccccc1)c1ccccc1.[Br-] [HG1a-1, (2-(2-(4-Methylthiazol-5-yl)Ethoxy)-2-Oxoethyl) Triphenylphosphonium Bromide]
ATP production; 6 months
  decrease of ATP level in liver compared to controls: 50%
ATP production; long term treated mice
  decrease of ATP level in liver compared to controls: 25%
[1]
  drop of ROS production: ~4 fold
3T3-L1 pre-adipocytes; 3T3-L1, up to 14 days
  adipocyte differentiation: poorly differentiated, immature adipocytes
3T3-L1 pre-adipocytes; 3T3-L1 cells
  protein abundance of Pparγ: significant reduction
[2]
  compound maintained intact in drinking water: 95%-99
p16, p21 transcripts
  p16 expression decline: 10 fold
  p21 expression: remained unchanged
Mature 3T3-L1 cells
  2-NBDG uptake: notably higher
[3]; 14 month old mice already treated for 12 months, 8 week HFD
  BW gain on HFD: resisted the BW gain with HFD until 5 weeks
[3]; aged group (12 month old)
  body weight gain on HFD: 12%
[3]; aged group
  BW contrast of treated vs control: 13%
[3]; younger group (12 week old)
  body weight gain on HFD: 18%
[3]; younger group
  BW contrast of treated vs control: 2-4%
[4]; 18 month long treatment
  tolerability of long-term regulated mitochondrial inhibition: well-tolerated without any deleterious effect
[4]; oral, 18-20 months
  mortality due to oral administration: no mice died
[5]
  clinical pathology (physicals) 24 h after treatment: within the normal baseline range
